How the values were obtained:
Test in all cases: Anticancer activity: growth inhibition in tissue culture (Alamar Blue)
Format in all cases: cell-based
[1] = system: DLD-1 (adenocarcinoma of the rectum); details: DLD-1 cells, 30 μM, 48 hours, Alamar Blue fluorescence; result in words
Method: (§1) A focused library was compiled to include compounds of general formula 1, as shown in Tables 1.01 to 1.23, and tested for anticancer activity. Anticancer activity of the compounds was measured by their capacity to kill cancerous cells in a tissue culture. Three cell lines representing three types of cancerous tumors were chosen, in particular: DLD-1 (adenocarcinoma of the rectum), DU-145 ([…]), and T-47D (tumor of the mammary gland). All the cell cultures were received from the American Tissue Culture Collection (ATCC). The efficiency of the compounds was assessed by measuring the number of […] cells following treatment with the test compounds over 48 hours. The cells were seeded at a concentration of 5*10^3 cells per hole of a standard 96-hole plate and left overnight for cells to be attached to the hole bottom. Whereupon the test compounds were added to the cells at an ultimate concentration of 30 μM, and the plates were left for 48 hours in an incubator at 37° C. maintaining the 5% CO2/95% air atmosphere at 100% humidity. At the end of the experiment, the medium with the compounds was sucked out of all the holes, and the holes were rinsed twice with physiological solution. […] of Alamar Blue solution was added to each hole, and fluorescence (λex=531 nm, λem=589 nm) was measured immediately after addition and 2 hours thereafter. The rate of fluorescence growth was proportional to the number of cells that survived incubation with the test compounds [John O'Brien, Ian Wilson, Terry Orton and Francois Pognan, “Investigation of the Alamar Blue (resazurin) Fluorescent Dye for the Assessment of Mammalian Cell Cytotoxicity.” Eur. J. Biochem. 2000,b 267, 5421-5426]. The proportion of cell growth suppression was found from the following equation: % of growth inhibition=((ΔΦk−ΔΦi)/ΔΦk)*100%, wherein: ΔΦ means increase in fluorescence over […] following addition of the Alamar Blue solution, and the subscripts […] and i mean, respectively, control cells (grown without any compounds added) and experimental cells (grown in the presence of test compounds).

[2] = system: DU-145 (carcinoma of the brain); details: DU-145 cells, 30 μM, 48 hours, Alamar Blue fluorescence; result in words
Method: as §1

[3] = system: T-47D (tumor of the mammary gland); details: T-47D cells, 30 μM, 48 hours, Alamar Blue fluorescence; result in words
Method: as §1

`CCc1ccc(-c2cc3n(n2)CC(C)(C(=O)NC2CCCCC2)N(CCN2CCCC2)C3=O)cc1` (stereo not drawn) [1.5(3){50}, cyclohexylamide of 6-methyl-4-oxo-5-(2-pyrrolidin-1-yl-ethyl)-2-(4-ethylphenyl)-4,5,6,7-tetrahydropyrazolo[1,5-a]pyrazine-6-carbonic acid] was tested, and the “suppression of tumor cell growth (% of growth inhibition)” value (shortened to “suppression … (% of growth inhibition)”) [1] was “equally good at suppressing cell growth in all three cancer tumors”, the “suppression … (% of growth inhibition)” value [2] was “equally good at suppressing cell growth in all three cancer tumors” and the “suppression … (% of growth inhibition)” value [3] was “equally good at suppressing cell growth in all three cancer tumors”.
